# Test results from patent US20250333509A1, “METHODS FOR TREATING CANCER, OR VON-HIPPEL LINDAU DISEASE USING A COMBINATION OF A TIGIT ANTAGONIST, A PD-1 ANTAGONIST, AND A HIF-2-ALPHA INHIBITOR” (MERCK SHARP & DOHME LLC, priority 2022, published 2025).
# B1: Anti-TIGIT (antibody)
# heavy: QVQLMESGPGLVQPSQTLSLTCTVSGFPLTSYTVHWVRQPPGKGLEWIGAIWSSGSTDYNSALKSRLNINRDSSKSQVFLKMNSLQTEDTAIYFCTKSGWAFFDYWGQGVMVTVSSAKTTAPSVYPLAPVCGDTTGSSVTLGCLVKGYFPEPVTLTWNSGSLSSGVHTFPAVLQSDLYTLSSSVTVTSSTWPSQSITCNVAHPASSTKVDKKIEPRGPTIKPCPPCKCPAPNLLGGPSVFIFPPKIKDVLMISLSPIVTCVVVDVSEDDPDVQISWFVNNVEVHTAQTQTHREDYNSTLRVVSALPIQHQDWMSGKEFKCKVNNKDLPAPIERTISKPKGSVRAPQVYVLPPPEEEMTKKQVTLTCMVTDFMPEDIYVEWTNNGKTELNYKNTEPVLDSDGSYFMYSKLRVEKKNWVERNSYSCSVVHEGLHNHHTTKSFSRTPGK
# light: DIQMTQSPSLLSASVGDRVTLNCIASQNIYKSLAWYQLKLGEAPKLLIYNANSLQAGIPSRFSGSGSGTDFALTISGLQPEDVATYFCQQYSGGYTFGAGTKLELKRADAAPTVSIFPPSSEQLTSGGASVVCFLNNFYPKDINVKWKIDGSERQNGVLNSWTDQDSKDSTYSMSSTLTLTKDEYERHNSYTCEATHKTSTSPIVKSFNRNEC
# B2: Anti-PD-1 (antibody)
# heavy: EVQLVESGGGLVQPGGSLKLSCAASGFTFSNSGLAWVRQAPEKGLEWVATITYNGTSTYYRDSVKGRFTISRDNAKNTLYLQMSSLRSEDTATYYCARWVPGSGNFDYWGQGTLVTVSSAKTTPPSVYPLAPGSAAQTNSMVTLGCLVKGYFPEPVTVTWNSGSLSSGVHTFPAVLQSDLYTLSSSVTVPSSTWPSETVTCNVAHPASSTKVDKKIVPRDCGCKPCICTVPEVSSVFIFPPKPKDVLTITLTPKVTCVVVAISKDDPEVQFSWFVDDVEVHTAQTQPREEQFNSTFRSVSELPIMHQDWLNGKEFKCRVNSAAFPAPIEKTISKTKGRPKAPQVYTIPPPKEQMAKDKVSLTCMITDFFPEDITVEWQWNGQPAENYKNTQPIMDTDGSYFVYSKLNVQKSNWEAGNTFTCSVLHEGLHNHHTEKSLSHSPGK
# light: DIVLTQSPASLAVSLGQRATISCRASQSVTISRYTLMHWYQQKPGQPPKLLIYRASNLASGIPARFSGSGSGTDFTLNIHPVEEDDAATYYCQQSRESPWTFGGGTKLEIKRADAAPTVSIFPPSSEQLTSGGASVVCFLNNFYPKDINVKWKIDGSERQNGVLNSWTDQDSKDSTYSMSSTLTLTKDEYERHNSYTCEATHKTSTSPIVKSFNRNEC
# How the values were obtained:
# [1] = system: CT26 tumors; experiment: CT26 mouse syngeneic tumor model: tumor growth inhibition and tumor regressions; format: in vivo; settings: CT26 tumors in female BALB/cAnn mice, 10 per group, anti-PD-1 5 mg/kg ip every 5 days, anti-TIGIT 10 mg/kg ip every 5 days, belzutifan 3 mg/kg orally twice daily; for Tumor growth inhibition (TGI) % at Day 16: Day 16 when control animals exited study; for Number of complete tumor regressions (CRs) at end of study / Number of partial tumor regressions (PRs) at end of study: end of study (Day 43)
# Text: The present Example describes preclinical data using a TIGIT antagonist and a PD-1 antagonist in combination with belzutifan, using mouse syngeneic models.
# Prior to treatment initiation, female BALB/cAnn mice aged 7 weeks weighing between 18 to 21 grams were anesthetized and injected subcutaneously into the rear flank with 0.3×10^6 log-phase sub-confluent CT26 cells. Mice were pair-matched into treatment groups consisting of 10 mice per group when the mean tumor volume of inoculated CT26 tumors reached approximately 150 mm^3.
# Treatment groups consisted of: • 1) Isotype mouse IgG1 (mIgG1) antibody+Isotype mouse IgG2a (mIgG2a) antibody+0.5% methylcellulose (vehicle); • 2) anti-PD-1 mIgG1 antibody+Isotype mIgG2a antibody+vehicle; • 3) anti-TIGIT mIgG2a antibody+Isotype mIgG1 antibody+vehicle; • 4) Isotype mIgG1 antibody+Isotype mIgG2a antibody+belzutifan; • 5) anti-PD-1 mIgG1 antibody+anti-TIGIT mIgG2a antibody+vehicle; • 6) anti-PD-1 mIgG1 antibody+Isotype mIgG2a antibody+belzutifan; • 7) Isotype mIgG1 antibody+anti-TIGIT mIgG2a antibody+belzutifan; and • 8) anti-PD-1 mIgG1 antibody+anti-TIGIT mIgG2a antibody+belzutifan.
# Isotype mIgG1 and anti-PD-1 antibodies were dosed intraperitoneally every 5 days at 5 mg/kg body weight. Isotype mIgG2a and anti-TIGIT antibodies were dosed intraperitoneally every 5 days at 10 mg/kg body weight. Belzutifan was dosed orally twice daily at 3 mg/kg body weight. Start of treatments was considered Day 0 and dosing based on schedules continued as described until Day 43. Caliper measurements of tumors and body weights were captured twice weekly. Statistical analyses were performed by 2-sided student t-test of final 2 groups at Day 43 when study ended.
# [2] = system: RCC associated with VHL disease, CNS hemangioblastomas, pancreatic neuroendocrine tumors; settings: cited from earlier work
# [3] = AE profile of belzutifan; cited from earlier work
# [4] = patients with RCC associated with VHL disease who received belzutifan
Molecule,Tumor growth inhibition (TGI) % at Day 16 [1] [%],Number of complete tumor regressions (CRs) at end of study [1],Number of partial tumor regressions (PRs) at end of study [1],patients with a response after treatment ([2]; patients with CNS hemangioblastomas) [%],"patients with a confirmed objective response [2, 4] [%]","reduction in renal tumor size [2, 4]",patients who responded after treatment ([2]; patients with pancreatic neuroendocrine tumors) [%],adverse events associated with treatment [3]
"CS(=O)(=O)c1ccc(Oc2cc(F)cc(C#N)c2)c2c1[C@H](O)[C@H](F)[C@@H]2F [belzutifan, 3-[(1S,2S,3R)-2,3-Difluoro-1-hydroxy-7-methylsulfonyl-indan-4-yl]oxy-5-fluoro-benzonitrile]",5.8,"0 CRs, 0 PRs","0 CRs, 0 PRs",30,49,most patients had a reduction in renal tumor size,91,anemia and hypoxia have been associated with belzutifan treatment
B1,47.4,"0 CRs, 0 PRs","0 CRs, 0 PRs",–,–,–,–,–
B2,4.8,0,1,–,–,–,–,–
